Legend:
[1] = target: T1, BChE (butyrylcholinesterase) (Equus caballus, UniProt P81908); assay: BChE inhibition, colorimetric cholinesterase assay; format: biochemical, horse; conditions: mean ± S.D., n = 3
T1 construct: horse serum butyrylcholinesterase, EC 3.1.1.8, Sigma Aldrich S.r.L; purchased Sigma Aldrich S.r.L; host or cells: horse serum

cytochrome C (Cyt C) = assay: Western blotting analysis of cytochrome C; format: cell-based, rat; conditions: CTX-TNA2 challenged with H2O2, 24 h; 1000 nM CBD, 1 nM CBG
Experimental: […] The stock solutions were diluted in cell medium to the point that the concentration of DMSO in the samples was less than 0.0003%. Therefore, the addition of DMSO to the control samples was not necessary.
The western blowing analysis of Bax and Cyt C was carried out as previously reported. Specifically, CTX-TNA2 lysates (20 µg) were boiled fof 5 min in sample buffer, made of tris-HCl pH 6.8, glycerol, 2-mercaptoethanol, SDS and bromophenol blue. They were then electrophoresed and transferred to nitrocellulose membranes. […] Immunoreactive bands were identified using the ECL detection system (Euroclone, Pero, Milano, Italy) and analyzed by densitometry. Densitometric values were quantified by the CHEMIDOC XRS system and expressed as Integrated Optical Intensity using the QuantiOne 1-D analysis software (Bio-rad Laboratories, Richmond, CA, USA). […] Results are expressed as the mean ± SD.

[2] = system: CTX-TNA2 rat astrocyte cell line; assay: MTT assay; format: cell-based; conditions: for cell proliferation (MTT): basal conditions, 48 h, cannabidiol 1000 nM, cannabigerol 100 and 1000 nM; for protection from H2O2 cytotoxicity (MTT): cells challenged with 300 µM H2O2, CBD 1000 nM, CBG 1 nM
Experimental: The CTX-TNA2 rat astrocytes were purchased from the European Collection of Cell Cultures (ECACC), Sigma-Aldrich, Milan, Italy, and cultured as already indicated. Cells were grown in Dulbecco’s Modified Eagle Medium supplemented with 10% of FBS and penicillin–streptomycin (100 µgmL^−1) (all from EuroClone SpA Life-Sciences-Division, Milan, Italy) and maintained in a humified atmosphere of 5% CO2 at 37 °C. Cells were subcultivated at a ratio of 1.2 to 1.8 and the medium was changed every 3 days. CTX-TNA2 astrocytes were plated in 25 or 75 cm^2 flasks, according to experimental needing and cells between the eight and the 15 passage were used.
When indicated, the cells were treated with H2O2 300 µM for three hours and different concentrations of CBD (1–1000 nM) and CBG (1–1000 nM). The stock solutions were diluted in cell medium to the point that the concentration of DMSO in the samples was less than 0.0003%. Therefore, the addition of DMSO to the control samples was not necessary.
The 3 [4–dimethylthiazol-2yl]-2,5-diphenyl tetrazolium bromide (MTT) growth assay (Sigma-Aldrich S.r.l.) was used to assess cell proliferation as previously described. Briefly, The CTX-TNA2 cells were seeded into 96-well plate at 8 × 10^3 cells/well and treated as described above. After 24 and 48 h, a medium containing 0.5 mg/mL MTT was added to the cells, and the cells were incubated at 37 °C for 3 h. Following a further incubation of 30 min in DMSO, the absorbance at 570 nm was measured using a Multiscan GO microplate spectrophotometer (Thermo Fisher Scientific, Waltham, MA, USA).

[3] = Cupric reducing antioxidant capacity (CUPRAC); conditions: mean ± S.D., n = 3
Experimental: For the cupric ion reducing activity (CUPRAC) activity assay, sample solution was added to premixed reaction mixture containing CuCl2 (1 mL, 10 mM), neocuproine (1 mL, 7.5 mM) and NH4Ac buffer (1 mL, 1 M, pH 7.0). Similarly, a blank was prepared by adding sample solution (0.5 mL) to premixed reaction mixture […] without CuCl2. Then, the sample and blank absorbances were read at 450 nm after a 30 min incubation at room temperature. The absorbance of the blank was subtracted from that of the sample. CUPRAC activity was expressed as IC50 values.

T1 sequence (P81908 whole entry): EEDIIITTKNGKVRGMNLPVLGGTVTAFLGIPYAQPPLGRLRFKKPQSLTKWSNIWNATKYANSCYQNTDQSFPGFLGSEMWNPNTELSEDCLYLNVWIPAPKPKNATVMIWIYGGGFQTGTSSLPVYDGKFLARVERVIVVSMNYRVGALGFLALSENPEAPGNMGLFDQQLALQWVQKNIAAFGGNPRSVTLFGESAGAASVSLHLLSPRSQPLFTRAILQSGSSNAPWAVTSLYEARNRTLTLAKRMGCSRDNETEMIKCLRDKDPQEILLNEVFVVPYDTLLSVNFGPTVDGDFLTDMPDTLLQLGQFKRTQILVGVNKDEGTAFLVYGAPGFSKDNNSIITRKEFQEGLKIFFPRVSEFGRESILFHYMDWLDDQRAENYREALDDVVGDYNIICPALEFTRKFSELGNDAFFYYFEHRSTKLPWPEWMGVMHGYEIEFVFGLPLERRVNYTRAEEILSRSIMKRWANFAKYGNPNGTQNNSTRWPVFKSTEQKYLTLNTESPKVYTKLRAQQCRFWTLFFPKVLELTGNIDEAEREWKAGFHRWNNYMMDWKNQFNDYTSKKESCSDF

Row | Structure (SMILES) | IC50 [1] | Cyt C expression (cytochrome C (Cyt C)) | cell proliferation (MTT) [2] | protection from H2O2 cytotoxicity (MTT) [2] | IC50 [3]
1 | C=C(C)[C@@H]1CCC(C)=C[C@H]1c1c(O)cc(CCCCC)cc1O [CBD, Cannabidiol] | 1880 ± 110 µM | decrease the Cyt C levels in comparison to H2O2 sample | increase in cell proliferation | effective in protecting the cells from oxidative damage | 940 ± 10 µM
2 | CCCCCc1cc(O)c(C/C=C(\C)CCC=C(C)C)c(O)c1 [CBG, cannabigerol] | 1480 ± 110 µM | effect on Bax only | increase in cell proliferation | effective at the lowest concentration (1 nM) | 590 ± 10 µM

From publication PMC7279038, “Antioxidant and Neuroprotective Effects Induced by Cannabidiol and Cannabigerol in Rat CTX-TNA2 Astrocytes and Isolated Cortexes” (International Journal of Molecular Sciences, 2020)
